Patent US10150776B2, “Harringtonines salts in the crystalline state and their use for the purification of the corresponding drug substance” (priority 2013, dated 2018)
Where two headings read alike, the source gives them in different places.

Legend:
[1] = test system: cancer; set-up: key: cytotoxic: CYTOTOXICITY is toxicity to tumor cells in culture; anticancer: ANTINEOPLASTIC or ANTICANCER iare the reserved terms for reportied clinical trials data; settings: in cancer area; terms defined in table footnote; cited from earlier work
[2] = Solubility determination in water, semi-quantitative; type: physicochemical
Procedure: Solubility in water at 25° C. was measured semi-quantitatively at a threshold of 5 g per 100 mL. All the homoharringtonine salts described in the below examples, unless otherwise stated, are soluble at this threshold. Homoharringtonine base itself is soluble at a threshold lower than 0.1 g per mL

Row | Compound | Activity [1] | solubility ([2]; 25 °C) | solubility ([2]; 25° C., semi-quantitative, read-out: Solubility in water (threshold))
1 | neoharringtonine [Example 5g] | cytotoxic | – | –
2 | COC(=O)CC(O)(CC(C)(C)O)C(=O)OC1C(OC)=CC23CCCN2CCc2cc4c(cc2C13)OCO4 (stereo not drawn) [Example 5c, norharringtonine] | none | – | –
3 | COC(=O)C[C@](O)(CCC(C)C)C(=O)O[C@@H]1C(OC)=C[C@]23CCCN2CCc2cc4c(cc2[C@H]13)OCO4 [Example 5d, deoxyharringtonine] | anticancer | – | –
4 | COC(=O)CC(O)(CCCCC(C)(C)O)C(=O)OC1C(OC)=CC23CCCN2CCc2cc4c(cc2C13)OCO4 (stereo not drawn) [Example 5e, bishomoharringtonine] | none | – | –
5 | COC(=O)C[C@@](O)(CCCC(C)(C)O)C(=O)O[C@@H]1C(OC)=C[C@]23CCCN2CCc2cc4c(cc2[C@H]13)OCO4.O=C(O)C[C@H](O)C(=O)O [Example 3, HOMOHARRINGTONINE HYDROGEN (2S)-MALATE] | – | > 60 mg/mL | –
6 | COC(=O)C[C@](O)(CCCC(C)(C)O)C(=O)O[C@@H]1C(OC)=C[C@]23CCCN2CCc2cc4c(cc2[C@H]13)OCO4 [Homoharringtonine base, homoharringtonine] | anticancer | – | < 100 mg/mL
7 | COC(=O)[C@@H](O)[C@](O)(CCC(C)C)C(=O)O[C@@H]1C(OC)=C[C@]23CCCN2CCc2cc4c(cc2[C@H]13)OCO4 [Example 5f, isoharringtonine] | none | – | –
8 | COC(=O)C[C@](O)(CCC(C)(C)O)C(=O)O[C@@H]1C(OC)=C[C@]23CCCN2CCc2cc4c(cc2[C@H]13)OCO4 [Example 5a, harringtonine] | anticancer | – | –
